Results as given in patent US10969396B2, “In vitro method, use of an agent and collection device for the inhibition of coagulation in blood” (priority 2013, dated 2021).
Counter-ions that a name gives are not always drawn.

Tested on: activated partial thromboplastin time (APTT)
Test: activated partial thromboplastin time (APTT) determination
Set-up: species or system human
Settings: Example 1, plasma, N 48
Description: Tetrahydrofuran-2,3,4,5-tetracarboxylic acid (THTCA) was from TCI, Germany. Pristine blood collection tubes, i.e. tubes as originally provided not containing or respectively not filled or coated with additive, were from KABE Labortechnik GmbH, Germany, denoted KABEVETTE (GR).
Blood was collected from the antecubital vein from volunteers who had previously given their informed consent. […] Tubes were filled with blood completely to the mark (4.9 mL), and for tubes containing anticoagulant the blood was mixed well with the respective anticoagulant by inverting the tubes 4 times immediately after blood collection. Serum samples were treated according to the protocol of the manufacturer and used for biochemical analysis. […] Potassium EDTA plasma was also used for biochemical determinations.
The analyses of metabolites, minerals, and enzymes were performed using the automated analyzers cobas 6000 C and 6000 E. Haemostasis tests and haematologic parameters were measured by STA-R (Diagnostica Stago) analyzer and LH 780 analyzer (Beckman Coulter) respectively.

Q: Which “APTT Mean” value (listed as GR 15, monohydrate) does the source give for O=C(O)CC(O)(CC(=O)O)C(=O)O [CA, Citric acid monohydrate] here?
A: 29.94 s

Q: With O=C(O)CC(O)(CC(=O)O)C(=O)O [citrate (BD), sodium citrate] as the compound, how does the “APTT Mean” value read?
A: 29.71 s
